Experiment [1] concerns NCI-H292 lung cancer cells. Description: FDA drug screening, complete media vs cholesterol-free media with simvastatin (TABLE 2). The experiment is classed as cell-based, human. To be noted: for Cholesterol-free media + simvastatin (0.04 μM) / Complete Media: NCI-H292 cells.
Experiment [2] has as its system NCI-H292 lung cancer cells. The experiment can be described thus: FDA drug screening, complete media vs cholesterol-free media without statin (TABLE 1). The class given is cell-based, human.
[3] abbreviates: cholesterol-free media with simvastatin 0.04 μM, FDA drug library screen (TABLE 2).
Setting [4] is: complete media, FDA drug library screen (TABLE 2).
The mark [5] stands for this setting: complete media minus cholesterol-free media + simvastatin (0.04 μM), >0 enhanced anti-cancer activity, about 0 neutral, <0 antagonist.
The mark [6] stands for this setting: Complete minus Cholesterol-free; >0 enhanced anti-cancer activity, about 0 neutral, <0 antagonist.
Where [7] appears, read: NCI-H292 cells, cholesterol-free media without statin.
Setting [8] is: FDA drug library screen, cholesterol-free media with simvastatin 0.04 μM.
Setting [9] is: FDA drug library screen, complete media.
The mark [10] stands for this setting: complete media vs cholesterol-free media + simvastatin (0.04 μM), >0 enhanced anti-cancer activity, about 0 neutral, <0 antagonist.
[11] abbreviates: NCI-H292 cells, cholesterol-free media without statin, FDA drug library screen.
The mark [12] stands for this setting: NCI-H292 cells, complete media, FDA drug library screen.
The mark [13] stands for this setting: cholesterol-free media with simvastatin 0.04 μM, cell growth value in FDA drug screen.
The mark [14] stands for this setting: complete media, cell growth value in FDA drug screen.
Setting [15] is: complete media minus cholesterol-free media + simvastatin, >0 enhanced anti-cancer activity, about 0 neutral, <0 antagonist.
Setting [16] is: complete vs cholesterol-free media; >0 enhanced anti-cancer activity, about 0 neutral, <0 antagonist.

We go through ten compounds from patent US20250144067A1, “PERSONALIZED STARVATION THERAPY FOR CANCER” (Faeth Therapeutics, Inc., priority 2021, published 2025).

Counter-ions that a name gives are not always drawn.

Turning to `COc1cc(NS(C)(=O)=O)ccc1Nc1c2ccccc2nc2ccccc12` [Amsacrine], the “Cholesterol-free media + simvastatin (0.04 μM)” value in experiment [1] (setting [3]) is given as 0.3844. Besides, in experiment [1] (setting [4]), the “Complete Media” value is 0.346. In addition, the Difference in experiment [1] (setting [5]) is given as −0.04; in experiment [2] (setting [6]) it was −0.20. The same compound registered a Cholesterol-free in experiment [2] (setting [7]) of 0.3482. The compound also had a Complete in experiment [2] (NCI-H292 cells, complete media) of 0.1517.

With `CN(C)CC/C=C1/c2ccccc2COc2ccc(CC(=O)O)cc21` [Olopatadine (hydrochloride)], the “Cholesterol-free media + simvastatin (0.04 μM)” value in experiment [1] (setting [8]) turned out to be 0.9644. In experiment [1] (setting [9]), the “Complete Media” value worked out at 0.8474. Besides, the Difference in experiment [1] (setting [10]) is on record as −0.12; in experiment [2] (Complete minus Cholesterol-free; greater than 0 enhanced anti-cancer activity, about 0 neutral, below 0 antagonist), −0.13. Also, in experiment [2] (NCI-H292 cells, FDA drug library screen, cholesterol-free media without statin), the Cholesterol-free is listed as 1.018. Also, in experiment [2] (NCI-H292 cells, FDA drug library screen, complete media), the Complete was determined as 0.8917.

Regarding `O=C(c1ccc(F)c(F)c1Nc1ccc(I)cc1F)N1CC(O)([C@@H]2CCCCN2)C1` [Cobimetinib], the “Cholesterol-free media + simvastatin (0.04 μM)” value in experiment [1] (setting [3]) amounted to 0.5825. In addition, in experiment [1] (setting [4]), the “Complete Media” value worked out at 0.5258. The Difference in experiment [1] (setting [5]) and in experiment [2] (setting [6]) was −0.06 in each case. Moreover, the Cholesterol-free in experiment [2] (setting [11]) is reported as 0.2958. The compound further gave a Complete in experiment [2] (setting [12]) of 0.2361.

Regarding `CC(C)(C#N)c1cc(Cn2cncn2)cc(C(C)(C)C#N)c1` [Anastrozole], the “Cholesterol-free media + simvastatin (0.04 μM)” value in experiment [1] (setting [3]) is reported as 1.07. In experiment [1] (setting [4]), the “Complete Media” value was determined as 1.045. The Difference was −0.02 in experiment [1] (setting [5]) and −0.28 in experiment [2] (setting [6]). Moreover, the Cholesterol-free in experiment [2] (setting [7]) came out at 1.263. In addition, in experiment [2] (NCI-H292 cells, complete media), the Complete is 0.9847.

On to `COC(=O)Nc1nc2ccc(C(=O)c3ccccc3)cc2[nH]1` [Mebendazole], for which, in experiment [1] (setting [13]), the “Cholesterol-free media + simvastatin (0.04 μM)” value stood at 0.4675. The “Complete Media” value in experiment [1] (setting [14]) was 0.5846. Besides, the figures for the Difference in experiment [1] (setting [15]) and in experiment [2] (setting [16]) were 0.12 and 0.24, respectively. Also, in experiment [2] (setting [11]), the Cholesterol-free turned out to be 0.1458. The Complete in experiment [2] (setting [12]) was 0.3848.

Consider `CC(C)C(=O)c1c(C(C)C)nn2ccccc12` [Ibudilast], for which the “Cholesterol-free media + simvastatin (0.04 μM)” value in experiment [1] (setting [13]) is on record as 1.245. Also, the “Complete Media” value in experiment [1] (setting [14]) is 1.273. For the same compound, the Difference in experiment [1] (setting [15]) amounted to 0.03; in experiment [2] (setting [6]), 0.04. Besides, in experiment [2] (setting [11]), the Cholesterol-free came to 1.126. In addition, the Complete in experiment [2] (setting [12]) was 1.165.

Take `N#Cc1nn(-c2c(Cl)cc(C(F)(F)F)cc2Cl)c(N)c1[S+]([O-])C(F)(F)F` (stereo not drawn) [Fipronil]: the “Cholesterol-free media + simvastatin (0.04 μM)” value in experiment [1] (setting [3]) is given as 1.235. Also, the “Complete Media” value in experiment [1] (setting [4]) was 1.184. Further, the Difference in experiment [1] (complete media minus cholesterol-free media + simvastatin (0.04 μM), […]) was −0.05; in experiment [2] (Complete minus Cholesterol-free; […]) it was −0.22. In addition, in experiment [2] (setting [7]), the Cholesterol-free turned out to be 1.217. This compound also displayed a Complete in experiment [2] (NCI-H292 cells, complete media) of 1.

On to `CO[C@H]1C(=O)[C@]2(C)[C@@H](OC)C[C@H]3OC[C@@]3(OC(C)=O)[C@H]2[C@H](OC(=O)c2ccccc2)[C@]2(O)C[C@H](OC(=O)[C@H](O)[C@@H](NC(=O)OC(C)(C)C)c3ccccc3)C(C)=C1C2(C)C` [Cabazitaxel], for which, in experiment [1] (setting [3]), the “Cholesterol-free media + simvastatin (0.04 μM)” value is recorded as 0.364. In experiment [1] (setting [4]), the “Complete Media” value came out at 0.3065. Besides, the results for the Difference in experiment [1] (setting [5]) and in experiment [2] (setting [6]) were −0.06 and −0.01, respectively. Moreover, in experiment [2] (setting [11]), the Cholesterol-free was 0.2044. The Complete in experiment [2] (setting [12]) is recorded as 0.198.

Take `Cc1cc2cc3c(C)cc(=O)oc3c(C)c2o1` [Trioxsalen]: in experiment [1] (setting [8]), the “Cholesterol-free media + simvastatin (0.04 μM)” value amounted to 1.056. In addition, in experiment [1] (setting [9]), the “Complete Media” value was found to be 0.9717. In addition, the Difference in experiment [1] (setting [10]) is reported as −0.08; in experiment [2] (setting [16]) it was 0.13. Moreover, in experiment [2] (setting [11]), the Cholesterol-free is 1.107. Moreover, in experiment [2] (setting [12]), the Complete is 1.239.

`O=C(C1CCCCC1)N1CC(=O)N2CCc3ccccc3C2C1` (stereo not drawn) [Praziquantel]: in experiment [1] (FDA library drug in cholesterol-free media with simvastatin 0.04 μM), the “Cholesterol-free media + simvastatin (0.04 μM)” value came out at 1.644. The “Complete Media” value in experiment [1] (FDA library drug in complete media) was 1.108. Moreover, the Difference is on record as −0.54 in experiment [1] (setting [10]) and −0.44 in experiment [2] (complete vs cholesterol-free media; greater than 0 enhanced anti-cancer activity, about 0 neutral, below 0 antagonists). Besides, the Cholesterol-free in experiment [2] (setting [7]) was determined as 1.485. This compound also had a Complete in experiment [2] (NCI-H292 cells, complete media) of 1.043.
